US20050090402A1, “Use of defined copolymers as adjuvants and agents in the agrotechnical domain” (priority 2001, published 2005)

How the values were obtained:
Assay type in all cases: in vivo
Details in all cases: bentazone 0.125 kg/ha, no adjuvant, 100 = complete destruction, 0 = no damage
[1] = tested on: soybeans (Glycine max; GLXMA); assay: Herbicidal efficacy of bentazone tank mixes, greenhouse post-emergence, soybeans
Experimental: (§1) The copolymers shown in Table 1 were applied by the tank mix method together with Basagran (480 g/l bentazone). The application rate per ha was 0.125 kg of bentazone and 2, 1.0 and 0.5 kg of a.i./ha copolymer or comparative surfactant Wettol LF 700 (alcohol alkoxylate). The herbicidal effect was assessed in a greenhouse experiment. The test plants used were soybeans (Glycine max; GLXMA), Chinese hemp (Abutilon theophrasti; ABUTH), white goosefoot (Chenopodium album; CHEAL) and ladysthumb (Polygonum persicaria; POLPE). These plants were either sown separately for each species or first grown separately as seedlings and transplanted into the experimental containers a few days before the treatment. The experimental containers used were plastic pots containing loamy sand and approximately 3.0% of humus as substrate. […] The application rate for the post-emergence treatment was 0.125 kg a.i./ha bentazone and 2.0, 1.0 or 0.5 kg a.i./ha copolymer or comparative surfactant.
(§2) The test period extended over 2 to 4 weeks. During this time, the plant species were kept specifically at night-time temperatures above 14° C. and day-time temperatures between 20 and 31° C., tended, and their response to the individual treatments was evaluated.
(§3) Evaluation was done using a scale from 0 to 100. […]

[2] = tested on: Chinese hemp (Abutilon theophrasti; ABUTH); assay: Herbicidal efficacy of bentazone tank mixes, greenhouse post-emergence, Chinese hemp
Experimental: as §1, §2, §3

[3] = tested on: white goosefoot (Chenopodium album; CHEAL); assay: Herbicidal efficacy of bentazone tank mixes, greenhouse post-emergence, white goosefoot
Experimental: as §1, §2, §3

[4] = tested on: ladysthumb (Polygonum persicaria; POLPE); assay: Herbicidal efficacy of bentazone tank mixes, greenhouse post-emergence, ladysthumb
Experimental: as §1, §2, §3

CC(C)N1C(=O)c2ccccc2NS1(=O)=O [Bentazone, bentazone]
herbicidal effect GLXMA (scale 0 to 100) [1]: 0 | herbicidal effect ABUTH (scale 0 to 100) [2]: 64 | herbicidal effect CHEAL (scale 0 to 100) [3]: 9 | herbicidal effect POLPE (scale 0 to 100) [4]: 86
